Values quoted from earlier work as cited in patent publication US10344034B2, “Pyrazolopyrimidone or Pyrrolotriazone derivatives, method of preparing same, and pharmaceutical applications thereof” (Shanghai Hengrui Pharmaceutical Co., Ltd., priority 2013, dated 2019).

Details: cited from earlier work

In the case of `COc1cccc(-c2c(C)n(Cc3c(F)cccc3C(F)(F)F)c(=O)n(C[C@H](NCCCC(=O)O)c3ccccc3)c2=O)c1F` [elagolix, Elagolix], the safety and tolerability (endometriosis phase II trial) is listed as “well verified” and the serum estrogen level (women with endometriosis, elagolix 150 or 250 mg qd, vs leuprorelin depot and placebo) is listed as “lower than that of the leuprorelin treatment group and placebo group”.
